Read-outs that look alike come from different tables or passages of the source.
Columns and labels:
HeLa cells = assay: Inhibition of cell surface sialylation, lectin staining and flow cytometry, HeLa cells; type: cell-based, human; details: three days
Protocol: (§1) Mouse B16-F10 melanoma cells (ATCC CRL-6475) were cultured in Minimum Essential Medium (MEM) (Gibco, Invitrogen, Carlsbad, Calif.) containing 5% fetal bovine serum (FBS) (Greiner Bio-one, Frickenhausen, Germany), 1% MEM non-essential amino acids (Gibco), 0.15% sodium bicarbonate (Gibco), 1 mM sodium pyruvate (Gibco), 1.5% MEM vitamins (Gibco), 1% antibiotic-antimycotic solution (50 U/ml penicillin, 50 μg/ml streptomycin and 125 ng/ml amphotericin B) (Gibco). The murine 9464D neuroblastoma cell line was cultured in Dulbecco's Modified Eagle's Medium (DMEM, Glutamax, Gibco) with 10% FBS, 1% non-essential amino acids, 50 μM 2-mercaptoethanol (Sigma-Aldrich) and 1% antibiotic-antimycotic solution (Kroesen et al., 2014, DOI: 10.1002/ijc.28463, Stauffer et al., 2012, DOI: 10.3109/07357907.2012.664670). The murine EL4 T lymphocyte cell line (ATCC TIB-39) was cultured in Iscove's Modified Dulbecco's Medium (IMDM, Gibco) supplemented with 5% FBS and 1% antibiotic-antimycotic solution. Human HEK293 (ATCC CRL-1573) kidney cells and human HeLa (ATCC CCL-2) cervical cancer cells were cultured in DMEM containing 10% FBS, 2 mM glutamine (Lonza, Walkersville, Md.) and 1% antibiotic-antimycotic solution. Human monocytic THP-1 cells (TIB-202, ATCC) were cultured in RRMI-1640 medium (Gibco) supplemented with 10% FBS, 2 mM glutamine and 1% antibiotic-antimycotic solution. All cell lines were cultured in a humidified 5% CO2 incubator at 37° C.
(§2) To assess the effect of the synthesized compounds on cell surface sialylation, different murine and human cell lines were cultured for three days in the presence of 0-204.8 μM amide and carbamate fluorine sialic acids. Cells treated with an equal final percentage of DMSO were used as control and all cells were subjected to lectin staining and flow cytometry as described below. To investigate the longevity of the effect of the fluorine sialic acids on cell surface sialylation, B16-F10 cells treated with 25.6 μM or 51.2 μM were thoroughly washed with medium to remove fluorine sialic acids from the culture and reseeded. During a period of six days, cells were harvested every day and sialylation was assessed by flow cytometry.
(§3) For the lectin staining, all cells were harvested and washed with 1× carbo-free blocking solution (Vector Laboratories, Inc., Burlingame, Calif., USA) and stained for 45 minutes at 4° C. in 1× carbo-free blocking solution containing 1 mM CaCl2), 1 mM MgCl2 and biotinylated MALII (5 μg/ml), SNA-1 (1 μg/ml) or PNA (5 μg/ml) all obtained from Vector Laboratories Inc. MALII recognizes α2,3-linked sialic acids, SNA-1 recognizes α2,6-linked sialic acids and PNA binds to terminal 3-galactose. In addition, B16-F10 cells were stained with 2 μg/ml biotinylated AAL (α-linked Fucose), LCA (α-linked Mannose), PHA-L (complex glycans), GSL-I (α-linked Galactose and N-Acetylgalactosamine), WGA (chitobiose), SJA (β-linked Galactose and N-Acetylgalactosamine) and PSA (Glucose and Mannose) purchased from Vector Laboratories Inc. Next, the cells were washed thrice in PBA (1×PBS, 1% BSA, and 0.02% sodium azide) and stained for 10 minutes at 4° C. with 2 μg/ml streptavidin-phycoerythrin (PE) (BD Pharmingen, Franklin Lakes, N.J., USA). The cells were washed thrice again with PBA and fluorescence was assessed using a CyAn ADP flow cytometer (BD Biosciences, San Jose, Calif.) followed by analysis with FlowJo software (Tree Star Inc., Ashland, Oreg.). Untreated cells stained with streptavidin-PE only served as background fluorescence control. The percentages lectin binding was calculated by normalizing the mean fluorescence intensity values from the treated cells with the DMSO controls.
(§4) IC50 values and statistics were calculated using Prism 5.03 (GraphPad Software, Inc., La Jolla, Calif.). Statistical significance between the different groups was calculated using one-way ANOVA followed by Bonferroni post-hoc testing and P-values<0.05 were considered significant (p<0.05 *, p<0.01 **, p<0.001 ***). […]

THP-1 cells = assay: Inhibition of cell surface sialylation, lectin staining and flow cytometry, THP-1 cells; type: cell-based, Human; details: three days
Protocol: as §1, §2, §3, §4

EL4 cells = assay: Inhibition of cell surface sialylation, lectin staining and flow cytometry, EL4 cells; type: cell-based, murine; details: three days
Protocol: as §1, §2, §3, §4

B16-F10 cells [1] = assay: Inhibition of cell surface sialylation by urea, thiocarbamate and sulphonamide analogues (Example 5); type: cell-based, Mouse; details: for IC50: three days, 0.1-204.8 μM
Protocol: as §1, §3
IC50 values and statistics were calculated using Prism 5.03 (GraphPad Software, Inc., La Jolla, Calif.). Statistical significance between the different groups was calculated using one-way ANOVA followed by Bonferroni post-hoc testing and P-values<0.05 were considered significant (p<0.05 *, p<0.01 **, p<0.001 ***).
Analogous to example 3, the inhibitory potency of thiocarbamate 28, urea 29, and sulphonamides 30 and 31 on the sialic acid biosynthesis was assayed. To this end, B16-F10 cells were fed sialic acid precursors for three day at various concentrations (0.1-204.8 μM). The decrease in cell surface sialylation was measured using biotinylated lectins that are specific for binding α2,3-linked (MALII) or α2,6-linked (SNA-1) sialic acid residues, subsequently visualized using streptavidin-phycoerythrin. Conversely, binding of the underlying galactose residue uncovered by desialylation was measured using a galactose specific lectin (Peanut, Agglutinin Lectin, PNA). No inhibition was observed without a P-3Fax-Neu derivative present (DMSO vehicle control). […]

B16-F10 cells [2] = assay: Inhibition of cell surface sialylation, lectin staining and flow cytometry, B16-F10 cells; type: cell-based, Mouse; details: three days
Protocol: as §1, §2, §3, §4

9464D cells = assay: Inhibition of cell surface sialylation, lectin staining and flow cytometry, 9464D cells; type: cell-based, murine; details: three days
Protocol: as §1, §2, §3, §4

HEK293 cells = assay: Inhibition of cell surface sialylation, lectin staining and flow cytometry, HEK293 cells; type: cell-based, Human; details: three days
Protocol: as §1, §2, §3, §4

[3] = MALII lectin binding, read-out: α2,3-Sia IC50
[4] = SNA-I lectin binding, read-out: α2,6-Sia IC50
[5] = Example 5, read-out: α2,6-Sia IC50 (SNA)
[6] = Homo sapiens, 72 h, MALII lectin binding, read-out: α2,3-Sia IC50
[7] = Homo sapiens, 72 h, SNA-I lectin binding, read-out: α2,6-Sia IC50
[8] = Mus musculus, 72 h, MALII lectin binding, read-out: α2,3-Sia IC50
[9] = Mus musculus, 72 h, SNA-I lectin binding, read-out: α2,6-Sia IC50
[10] = Example 5, read-out: α2,3-Sia IC50 (MAL)

Compound	IC50 (HeLa cells; [6])	IC50 (HeLa cells; [7])	IC50 (THP-1 cells; [6])	IC50 (THP-1 cells; [7])	IC50 (EL4 cells; [8])	IC50 (EL4 cells; [9])	IC50 (B16-F10 cells [2]; [8])	IC50 (B16-F10 cells [2]; [9])	IC50 (9464D cells; [8])	IC50 (9464D cells; [9])	IC50 (B16-F10 cells [1]; [5])	IC50 (HEK293 cells; [6])	IC50 (HEK293 cells; [7])	IC50 (B16-F10 cells [1]; [10])	further results
COC(=O)C1(OC(C)=O)O[C@@H]([C@H](OC(C)=O)[C@@H](COC(C)=O)OC(C)=O)[C@H](NC(C)=O)[C@@H](OC(C)=O)[C@H]1F (stereo partly drawn) [SiaFAc, Methyl 5-(acetamido)-2,4,7,8,9-penta-O-acetyl-3,5-dideoxy-3-fluoro-D-glycero-β-galacto-non-2-ulopyranosonate, reference compound]	–	–	–	–	–	–	–	–	–	–	20.9 µM	–	–	–	IC50 (HeLa cells; [3]): 53 ± 3.61 µM; IC50 (HeLa cells; [4]): 34.5 ± 2.18 µM; IC50 (THP-1 cells; [3]): 8.5 ± 1.54 µM; IC50 (THP-1 cells; [4]): 10.9 ± 2.47 µM; IC50 (EL4 cells; [3]): > 102 µM; IC50 (EL4 cells; [4]): > 102 µM; IC50 (B16-F10 cells [2]; [3]): 26.8 ± 5.72 µM; IC50 (B16-F10 cells [2]; [4]): 32.8 ± 3.08 µM; IC50 (9464D cells; [3]): > 102 µM; IC50 (9464D cells; [4]): > 102 µM; IC50 (HEK293 cells; [3]): 45.2 ± 8.3 µM; IC50 (HEK293 cells; [4]): 36.7 ± 3.59 µM
Methyl 5-(methylsulfonamido)-2,4,7,8,9-penta-O-acetyl-3,5-dideoxy-3-fluoro-D-glycero-β-galacto-non-2-ulopyranosonate [Sulphonamide 30]	–	–	–	–	–	–	–	–	–	–	–	–	–	9.9 µM	inhibition of sialylation compared with the acetate (B16-F10 cells [1]; FIG. 8): outperforming the acetate at various concentrations
Methyl 5-(S-ethylthiocarbamado)-2,4,7,8,9-penta-O-acetyl-3,5-dideoxy-3-fluoro-D-glycero-β-galacto-non-2-ulopyranosonate [Thiocarbamate 28]	–	–	–	–	–	–	–	–	–	–	4.83 µM	–	–	1.68 µM	–
Methyl 5-N-ethylamidnocarbonyl)-2,4,7,8,9-penta-O-acetyl-3,5-dideoxy-3-fluoro-D-glycero-β-galacto-non-2-ulopyranosonate [Urea 29]	–	–	–	–	–	–	–	–	–	–	4.89 µM	–	–	4.2 µM	–

Continued, in another order:

IC50 (HeLa cells; [6])	IC50 (HeLa cells; [7])	IC50 (THP-1 cells; [6])	IC50 (THP-1 cells; [7])	IC50 (EL4 cells; [8])	IC50 (EL4 cells; [9])	IC50 (B16-F10 cells [2]; [8])	IC50 (B16-F10 cells [2]; [9])	IC50 (9464D cells; [8])	IC50 (9464D cells; [9])	Compound	IC50 (B16-F10 cells [1]; [5])	IC50 (HEK293 cells; [6])	IC50 (HEK293 cells; [7])	IC50 (B16-F10 cells [1]; [10])	further results
2.02 ± 1.52 µM	1.67 ± 1.31 µM	0.45 ± 0.74 µM	0.37 µM	42 ± 11 µM	50.6 ± 8.84 µM	1.78 ± 0.16 µM	3.87 ± 1.14 µM	8.91 ± 2.38 µM	28.1 ± 5.51 µM	CCOC(=O)N[C@@H]1C(OC(C)=O)C(F)C(OC(C)=O)(C(=O)OC)OC1[C@H](OC(C)=O)[C@@H](COC(C)=O)OC(C)=O (stereo partly drawn) [SiaFEt, Methyl 5-(ethylcarbamado)-2,4,7,8,9-penta-O-acetyl-3,5-dideoxy-3-fluoro-D-glycero-β-galacto-non-2-ulopyranosonate]	–	2.02 ± 2.72 µM	1.57 ± 4.23 µM	–	IC50 (B16-F10 cells [1]; Mus musculus, 72 h, Example 5, read-out: α2,3-Sia IC50 (MAL)): 0.929 µM; IC50 (B16-F10 cells [1]; Mus musculus, 72 h, Example 5, read-out: α2,6-Sia IC50 (SNA)): 3.92 µM
6.33 ± 3.26 µM	5.23 ± 1.88 µM	1.98 ± 0.91 µM	2.65 ± 1.6 µM	59.2 ± 4.17 µM	52.7 ± 5.45 µM	4.89 ± 0.25 µM	7.54 ± 1.34 µM	18.3 ± 2.67 µM	29.6 ± 4.67 µM	COC(=O)N[C@@H]1C(OC(C)=O)C(F)C(OC(C)=O)(C(=O)OC)OC1[C@H](OC(C)=O)[C@@H](COC(C)=O)OC(C)=O (stereo partly drawn) [SiaFMe, Methyl 5-(methylcarbamado)-2,4,7,8,9-penta-O-acetyl-3,5-dideoxy-3-fluoro-D-glycero-β-galacto-non-2-ulopyranosonate]	–	3.31 ± 1.24 µM	4.77 ± 2.8 µM	–	–

From US11639364B2, “Potent sialyltransferase inhibitors” (STICHTING RADBOUD UNIVERSITEIT, priority 2018, dated 2023)
